Data taken from patent US10822376B2, “Biologically active peptides” (Baxalta Incorporated, priority 2008, dated 2020).

Tests used:
FVIII inhibited plasma = experiment: Defined Dual-Pathway Thrombin Generation Assay (DDPTGA, reagent C high), FVIII inhibited plasma; assay type: biochemical, human; conditions: for Peak IIa FEIBA EU / Peak IIa FVIIa EU / Peak Time FEIBA EU / Peak Time FVIIa EU: FVIII inhibited plasma
[1] = tested on: Factor X deficient human plasma; experiment: DDPTGA (reagent B) in FX depleted plasma; conditions: compounds at 50 μM and 80, 90 or 100 μM
Protocol: (§1) The Defined Dual-Pathway Thrombin Generation Assay is performed as described below, using a commercial test kit (Technothrombin TGA, Technoclone GmbH, Vienna, Austria). […] USA) are incubated four minutes at 37° C. Preferably, Reagent C high is used. Thrombin generation is started by the addition of 40 μl of one of several types of human plasma (37° C.). […] By deviating the original fluorescence data the amount of generated thrombin is calculated from a standard curve constructed using a concentration range of thrombin.
(§2) The in vitro thrombin generation assay based on the cleavage of Z-GGR-AMC to release the fluorophore AMC, described in the specific description, i.e. the Defined Dual-Pathway Thrombin Generation Assay was used to characterise the effect of the compounds in several depleted human plasmas. […] 10 μl peptide dilution, 40 μl TGA substrate and 40 μl plasma were used as described in the specific description.
(§3) The plasmas used in the experiments were fresh frozen and were deficient in Factor V, Factor VII/VIIa, Factor VIII, Factor X or Factor XI (George King Bio-Medical, Inc.). Residual coagulation factor levels of deficient plasmas were specified as less than 1%.
(§4) For each depleted plasma used in the experiments, compounds were tested at two concentrations, namely 50 μM and 80, 90 or 100 μM. A negative control was used, in which no test compound was included.

[2] = tested on: Factor V deficient human plasma; experiment: DDPTGA (reagent B) in FV depleted plasma; conditions: compounds at 50 μM and 80, 90 or 100 μM
Protocol: as §1, §2, §3, §4

[3] = tested on: Factor VII/VIIa deficient human plasma; experiment: DDPTGA (reagent B) in FVII depleted plasma; conditions: compounds at 50 μM and 80, 90 or 100 μM
Protocol: as §1, §2, §3, §4

FVIII deficient plasma = experiment: Defined Dual-Pathway Thrombin Generation Assay (DDPTGA, reagent C high), FVIII deficient plasma; assay type: biochemical, human; conditions: FVIII deficient plasma
[4] = tested on: Factor XI deficient human plasma; experiment: DDPTGA (reagent B) in FXI depleted plasma; conditions: compounds at 50 μM and 80, 90 or 100 μM
Protocol: as §1, §2, §3, §4

[5] = tested on: human FVIII inhibited plasma; experiment: Defined Intrinsic Thrombin Generation Assay (DITGA, triggered by FXIa and phospholipids); assay type: biochemical
Acute toxicology in mice = assay type: in vivo, mouse; conditions: C57BL/6, mouse, in vivo, iv; 60 minutes following administration; read-out: Max dose within toxicity category: No detected toxicity
Protocol: Toxicology studies involved monitoring of attitude changes due to toxic effects immediately after application and twice daily; monitoring of body weight; histopathology of brain, heart, kidney, liver, lung. Experiments were performed in C57131/6 mice.
C57BI/6 mice weighing 18-20 g were administered with compounds in a suitable vehicle i.v. in the tail vein or i.p. or s.c at 10 ml/kg. Quantities of the compounds administered were in the range of 0.075 to 125 mg/kg (i.v.), 15-125 mg/kg (i.p.) and 125 mg/kg (s.c.). There were four mice per group. Attitude changes due to toxic effects were monitored immediately after administration of the compound and for 60 minutes thereafter. Body weight was monitored for five days after administration. At day 5 after administration, mice were culled and autopsy performed. Brain, heart, kidney, liver, lung and spleen were biopsied.
In the above table, the maximum dose tested giving rise to no detected toxicity, some toxicity or severe toxicity over the period of 60 minutes following administration is reported. “No detected toxicity” indicates no acute toxic observations.

[6] = tested on: Factor VIII deficient human plasma; experiment: DDPTGA (reagent B) in FVIII depleted plasma; assay type: biochemical; conditions: compounds at 50 μM and 80, 90 or 100 μM; also: key: '+' means stimulates; '−' means does not stimulate
Description: Preferably, Reagent C high is used.

Protocol for physchem: Aqueous solubility is measured in PBS at pH 7.4 either in an assay provided by Cerep (France, Catalog ref. 900-11a) or according to the following protocol. The aim of this procedure is to determine the solubility of a drug candidate (analyte) in a buffer, by estimating the saturation concentration of the candidate in the buffer using HPLC. A known concentration of the candidate in an organic solvent is used as a standard. A stock solution of the test compound in DMSO must be prepared as the initial step. […] DMSO stock-solutions are diluted to a final concentration of 50 μM with DMSO (100% reference-solution) and buffer (test-solution) to provide a minimum volume of 500 μL of each. Both solutions are shaken at 25° C. at 950 rpm in an Eppendorf “thermomixer comfort” for at least 60 min. The suspension is centrifuged at 22 330 g for at least two min and 100 μL of the supernatant is transferred into polypropylene-inserts placed in glass vials and closed by snap-ring caps. Alternatively the solutions can be prepared in microtiter plates with half of the previously described starting solvent volume. For the determination of the solubility all samples are analyzed by HPLC in triplicate. Injection volume is at least 10 μL. The obtained data are analyzed by “Chemstation-software” (Agilent, Waldbronn, Germany). The peaks from the analyses of the organic solutions are integrated and the arithmetic mean is reported as “AUC 1” (reference area of known amount injected at the HPLC). […] The ratio of the mean “AUC 2” and “AUC 1” is calculated and thus the percentage of the dissolved amount of compound in buffer is obtained and solubility can be reported in μM.

## H-ERMEFDVWDLYFEIVW-NH2 [Peptide A09]
FVIII inhibited plasma; peptide 25 μM
  Peak IIa FEIBA EU: BLS (BLS = below lowest standard.)
  Peak IIa FVIIa EU: BLS (BLS = below lowest standard.)
  Peak Time FEIBA EU: 7.9 mU/ml
  Peak Time FVIIa EU: 0.2 nM
FVIII inhibited plasma; peptide 50 μM
  Peak IIa FEIBA EU: 8.6 mU/ml
  Peak IIa FVIIa EU: BLS (BLS = below lowest standard.)
  Peak Time FEIBA EU: BLS (BLS = below lowest standard.)
  Peak Time FVIIa EU: BLS (BLS = below lowest standard.)
FVIII inhibited plasma; summary, FVIII inhibited or deficient plasma
  Activity in the Defined Dual-Pathway Thrombin Generation Assay: possess activity
[1]
  Stimulation of thrombin generation: +
[2]
  Stimulation of thrombin generation: −
[3]
  Stimulation of thrombin generation: +
FVIII deficient plasma; peptide 25 μM
  Peak IIa FVIII EU: BLS (BLS = below lowest standard.)
  Peak Time FVIII EU: 15.6 mU/ml
FVIII deficient plasma; peptide 50 μM
  Peak IIa FVIII EU: BLS (BLS = below lowest standard.)
  Peak Time FVIII EU: 27.2 mU/ml
[4]
  Stimulation of thrombin generation: +
[5]; peptide 6.25 μM
  Thrombin peak time given as FEIBA equivalent activity: 600 mU/ml
[5]; peptide 12.5 μM
  Thrombin peak time given as FEIBA equivalent activity: 742 mU/ml
[5]; peptide 25 μM
  Thrombin peak time given as FEIBA equivalent activity: 896 mU/ml
[5]; peptide 50 μM
  Thrombin peak time given as FEIBA equivalent activity: 1170 mU/ml
[5]; peptide 100 μM
  Thrombin peak time given as FEIBA equivalent activity: 1365 mU/ml
[5]; summary
  Activity in the Defined Intrinsic Thrombin Generation Assay: possess activity
physchem; pH 7.4
  solubility kinetic: 63 µM
physchem; pH 7.4, Aqueous solubility
  solubility: 63 µM
physchem; pH 7.4, Solubility in PBS pH 7.4
  solubility: ≥ 25 µM
Acute toxicology in mice
  NOAEL at 1 h: 15 mg/kg
[6]
  Stimulation of thrombin generation: +
